These are literature values, as cited in patent publication US20220378705A1, “METHOD FOR PREPARING PHARMACEUTICAL COMPOSITIONS CONTAINING AMPHIPHILIC ACTIVE INGREDIENTS” (PHARMADEV SA, priority 2019, published 2022).

The conditions of series [1]: octanol-water partition coefficient.

Turning to `O=C(c1ccccc1)c1ccc2n1CCC2C(=O)O` (racemic) [KETOROLAC, 2-amino-2-(hydroxymethyl)propane-1,3-2-amino-2-(hydroxymethyl)-1,3-propanediol(±)-5-benzoyl-2,3-dihydro-1H-pyrrolizine-1-carboxylic acid diol(±)-5-benzoyl-2,3-dihydro-1H-pyrrolizine-1-carboxylic acid], the pKa (usually the pH at which an ionisable group is half protonated) was 3.84. Also, the “Log Po/w” value in series [1] is recorded as 2.3.
In the case of `CC(C(=O)O)c1ccc(-c2ccccc2)c(F)c1` (stereo not shown) [FLURBIPROFEN, 2-(3-fluoro-4-phenylphenyl)propanoic acid], the pKa is 4.17. Also, the “Log Po/w” value in series [1] is 4.16.
For the molecule `Cc1cccc(Nc2ccccc2C(=O)O)c1C` [MEFENAMIC ACID, 2-(2,3-dimethylanilino)benzoic acid], the “Log Po/w” value in series [1] is reported as 4.20.
As for `O=C(O)c1cccnc1Nc1cccc(C(F)(F)F)c1` [NIFLUMIC ACID], the pKa is reported as 4.44. The “Log Po/w” value in series [1] was 4.43.
